What was measured:
Liver = experiment: Tissue uptake clearance in mouse liver at […] mg/kg, iv in presence of 30 umol/kg TPeA; format: ADME, organism-based; settings: in vivo
Kidney = experiment: Tissue uptake clearance in mouse kidney at […] mg/kg, iv in presence of 30 umol/kg TPeA; format: ADME, organism-based; settings: in vivo

CN(C)C(=N)N=C(N)N [METFORMIN]
Drug uptake (Liver): Not Active | Drug uptake (Kidney): Not Active
